Experimental data as given in PMC9657321, “Identification of Boronate-Containing Diarylpyrimidine Derivatives as Novel HIV-1 Non-Nucleoside Reverse Transcriptase Inhibitors” (Molecules, 2022).
Where two headings read alike, the source gives them in different places.

Experiments:
[1] = tested on: HIV-1 K103N mutant strain; assay: microbe, parasite or virus in culture; format: cell-based; conditions: for EC50: Human immunodeficiency virus 1, MT4, read-out: EC50 K103N, MT-4 cells, K103N, MTT method; for RF K103N: ratio EC50 (resistant viral strain)/EC50 (wild-type viral strain)
Procedure: (§1) All data were calculated using the median optical density (OD) value of three wells.

wild-type HIV-1 (IIIB) = assay: microbe, parasite or virus in culture; format: cell-based; conditions: for EC50: Human immunodeficiency virus 1, MT4, MT-4 cells, HIV-1 IIIB, MTT method; for RF IIIB: ratio EC50(resistant strain)/EC50(wild-type strain); for SI IIIB: selectivity index, ratio CC50/EC50, IIIB
Procedure: as §1

[2] = tested on: HIV-1 F227L + V106A mutant strain; assay: microbe, parasite or virus in culture; format: cell-based; conditions: for EC50: Human immunodeficiency virus 1, MT4, read-out: EC50 F227L + V106A; for RF F227L + V106A: ratio EC50 (resistant viral strain)/EC50 (wild-type viral strain)
Procedure: as §1

[3] = tested on: HIV-1 double-mutant strain RES056 (K103N/Y181C); assay: microbe, parasite or virus in culture; format: cell-based; conditions: for EC50: Human immunodeficiency virus 1, MT4, read-out: EC50 RES056; for RF RES056: ratio EC50(resistant strain)/EC50(wild-type strain); for SI RES056: selectivity index, ratio CC50/EC50, RES056
Procedure: as §1

[4] = tested on: HIV-1 L100I mutant strain; assay: microbe, parasite or virus in culture; format: cell-based; conditions: for EC50: Human immunodeficiency virus 1, MT4, read-out: EC50 L100I; for RF L100I: ratio EC50 (resistant viral strain)/EC50 (wild-type viral strain)
Procedure: as §1

[5] = tested on: HIV-1 Y181C mutant strain; assay: microbe, parasite or virus in culture; format: cell-based; conditions: for EC50: Human immunodeficiency virus 1, MT4, read-out: EC50 Y181C, MT-4 cells, Y181C, MTT method; for RF Y181C: ratio EC50 (resistant viral strain)/EC50 (wild-type viral strain)
Procedure: as §1

[6] = tested on: HIV-1 Y188L mutant strain; assay: microbe, parasite or virus in culture; format: cell-based; conditions: for EC50: Human immunodeficiency virus 1, MT4, read-out: EC50 Y188L; for RF Y188L: ratio EC50 (resistant viral strain)/EC50 (wild-type viral strain)
Procedure: as §1

[7] = tested on: HIV-1 E138K mutant strain; assay: microbe, parasite or virus in culture; format: cell-based; conditions: for EC50: Human immunodeficiency virus 1, MT4, read-out: EC50 E138K; for RF E138K: ratio EC50 (resistant viral strain)/EC50 (wild-type viral strain)
Procedure: as §1

[8] = Cytotoxicity in mock-infected MT-4 cells, MTT method; format: cell-based; conditions: human
Procedure: The 3-(4,5-dimethylthiazol-2-yl)-2,5-diphenyltetrazolium bromide (MTT) method was used to evaluate the antiviral activity and cytotoxicity of the synthesized compounds as previously described. At the beginning of each experiment, stock solutions (10× final concentration) of test compounds were added in 25 μL volumes to two series of triplicate wells for allowing the simultaneous evaluation of their effects on mock- and HIV-infected cells. The serial 5-fold dilutions of the compounds were made in flat-bottomed 96-well microtiter trays directly, including untreated control HIV-1 and mock infected cell samples for each sample using a Biomek 3000 robot (Beckman Instruments, Fullerton, CA, USA). HIV-1 (IIIB) and mutant HIV-1 strains (RES056, F227L/V106A, L100I, K103N, E138K, Y181C, and Y188L) stock (50 μL at 100–300 CCID50) (50% cell culture infectious dose) or culture medium was added to either the infected or mock-infected wells of the microtiter tray. Mock-infected cells were used to evaluate the effect on uninfected cells to assess the cytotoxicity of the test compounds. Exponentially growing MT-4 cells were centrifuged for […] at 1000 rpm (Eppendorf 5424, Hamburg, Germany) and then the supernatant was discarded. The MT-4 cells were resuspended at 6 × 10^5 cells/mL and 50 μL aliquots were transferred to the microtiter tray wells. At 5 days after infection, the viability of mock- and HIV-infected cells was determined spectrophotometrically by means of MTT assay.
The MTT assay is based on the reduction of yellow-colored MTT (Acros Organics, Geel, Belgium) by mitochondrial dehydrogenase of metabolically active cells to form a blue-purple formazan. The absorbances were read in an eight-channel computer-controlled photometer at the wavelengths of 540 and 690 nm. All data were calculated using the median optical density (OD) value of three wells.

[9] = target: T1, recombinant wild-type HIV-1 RT enzyme (Human immunodeficiency virus type 1 group M subtype B, UniProt P03366); assay: HIV-1 RT inhibition assay (ELISA, Roche RT assay kit); format: biochemical
T1 construct: recombinant wild-type HIV-1 RT enzyme; purchased Roche (Basel, Switzerland)
Procedure: The HIV-1 RT inhibition assay was performed by using an RT assay kit produced by Roche (Basel, Switzerland).
The biotin-labeled dNTPs were incorporated into the cDNA chain in the presence of RT and bound to streptavidin. The washing buffer was used to wash the unbound dNTPs and add the anti-DIG-POD to the MTPs.
The peroxide substrate (ABST) solution was added to the MTPs, when the unbound anti-DIG-PODs were washed out. […] The absorbance of the sample was determined at OD405 nm using a microtiter plate ELISA reader. The percentage inhibitory activity of RT inhibitors was calculated according to the following formula: % inhibition = [O.D. value with RT but without inhibitors − O.D. value with RT and inhibitors]/[O.D. value with RT and inhibitors − O.D. value without RT and inhibitors].

[10] = mock-infected MT-4 cells, MTT method, read-out: CC50

Row | Compound | EC50 (wild-type HIV-1 (IIIB)) | EC50 [3] | EC50 [4] | EC50 [5] | EC50 [6] | EC50 [7] | CC50 at 5 days [8] | RF IIIB (wild-type HIV-1 (IIIB)) | RF RES056 [3] | SI IIIB (wild-type HIV-1 (IIIB)) | SI RES056 [3] | melting point | also measured
1 | Cc1cc(C#N)cc(C)c1Oc1nc(Nc2ccc(C#N)cc2)nc(N)c1Br [ETR, etravirine, reference compound] | 0.004 ± 0.001 µM | 0.061 ± 0.034 µM | 0.008 ± 0.002 µM | 0.016 ± 0.005 µM | 0.019 ± 0.007 µM | 0.01 ± 0.005 µM | > 4.6 µM | – | – | – | – | – | EC50 [1]: 0.003 ± 0.008 µM; EC50 [2]: 0.026 ± 0.017 µM
2 | Cc1cc(C#N)cc(C)c1Oc1nc(Nc2ccc(B3OC(C)(C)C(C)(C)O3)cc2)nc2sccc12 [Compound 3b, 3,5-Dimethyl-4-((2-((4-(4,4,5,5-tetramethyl-1,3,2-dioxaborolan-2-yl)phenyl)amino)thieno [2,3-d]pyrimidin-4-yl)oxy)benzonitrile] | 1.3 ± 0.275 µM | 174 ± 34.5 µM | – | – | – | – | > 254 µM | 1.0 | 134 | – | – | – | –
3 | Cc1cc(C#N)cc(C)c1Oc1nc(Nc2ccc(B3OC(C)(C)C(C)(C)O3)cc2)nc2cccnc12 [Compound 3h, 3,5-Dimethyl-4-((2-((4-(4,4,5,5-tetramethyl-1,3,2-dioxaborolan-2-yl)phenyl)amino)pyrido [3,2-d]pyrimidin-4-yl)oxy)benzonitrile] | 0.112 ± 0.024 µM | > 26 µM | – | – | – | – | 26 ± 2.33 µM | 1.0 | > 232 | 232 | < 1 | 177 to 179 °C | fold more potent than 3g (wild-type HIV-1 (IIIB)): 55 fold
4 | Cc1cc(C#N)cc(C)c1Oc1nc(Nc2ccc(B3OC(C)(C)C(C)(C)O3)cc2)nc2ccccc12 [Compound 3g, 3,5-Dimethyl-4-((2-((4-(4,4,5,5-tetramethyl-1,3,2-dioxaborolan-2-yl)phenyl)amino)quinazolin-4-yl)oxy)benzonitrile] | 6.17 ± 1.83 µM | > 254 µM | – | – | – | – | > 254 µM | 1.0 | > 41.1 | > 41 | – | 147 to 149 °C | –
5 | Cc1cc(C#N)cc(C)c1Oc1nc(Nc2ccc(B3OC(C)(C)C(C)(C)O3)cc2)nc2ccsc12 [Compound 3a, 3,5-Dimethyl-4-((2-((4-(4,4,5,5-tetramethyl-1,3,2-dioxaborolan-2-yl)phenyl)amino)thieno [3,2-d]pyrimidin-4-yl)oxy)benzonitrile] | 0.064 ± 0.021 µM | > 27.4 µM | 2.51 ± 0.155 µM | 6.29 ± 3.27 µM | 6.02 ± 3.14 µM | 0.193 ± 0.077 µM | 27.4 ± 1.2 µM | 1.0 | > 431 | – | – | – | EC50 [1]: 0.081 ± 0.008 µM; RF K103N [1]: 1.3; EC50 [2]: 4.95 ± 1.98 µM; RF F227L + V106A [2]: 77.8; RF L100I [4]: 39.4; RF Y181C [5]: 98.8; RF Y188L [6]: 94.7; RF E138K [7]: 3.0; IC50 [9]: 0.354 ± 0.043 µM
6 | Cc1cc(C#N)cc(C)c1Oc1nc(Nc2ccc(B3OC(C)(C)C(C)(C)O3)cc2)nc2ncsc12 [Compound 3d, 3,5-Dimethyl-4-((5-((4-(4,4,5,5-tetramethyl-1,3,2-dioxaborolan-2-yl)phenyl)amino)thiazolo [4,5-d]pyrimidin-7-yl)oxy)benzonitrile] | 0.12 ± 0.056 µM | > 24.1 µM | – | – | – | – | 24.1 ± 3.76 µM | 1.0 | > 201 | 201 | < 1 | 117 to 119 °C | –
7 | O=C1Nc2ccc(Cl)cc2[C@@](C#CC2CC2)(C(F)(F)F)O1 [EFV, efavirenz, reference compound] | 0.003 ± 0.001 µM | 0.337 ± 0.149 µM | 0.032 ± 0.008 µM | 0.005 ± 0.002 µM | 0.261 ± 0.118 µM | 0.006 ± 0.002 µM | – | – | – | – | – | – | EC50 [1]: 0.071 ± 0.02 µM; CC50 at 5 days [8, 10]: > 6.35 µM
8 | Cc1cc(C#N)cc(C)c1Oc1nc(Nc2ccc(B3OC(C)(C)C(C)(C)O3)cc2)nc2scnc12 [Compound 3e, 3,5-Dimethyl-4-((5-((4-(4,4,5,5-tetramethyl-1,3,2-dioxaborolan-2-yl)phenyl)amino)thiazolo [5,4-d]pyrimidin-7-yl)oxy)benzonitrile] | 0.215 ± 0.091 µM | > 26.5 µM | – | – | – | – | 26.5 ± 1.78 µM | 1.0 | > 123 | – | – | – | –
9 | Cc1ccnc2c1NC(=O)c1cccnc1N2C1CC1 [NVP, nevirapine, reference compound] | 0.151 ± 0.037 µM | > 15 µM | 0.623 ± 0.277 µM | 5.06 ± 0.922 µM | 9.08 ± 2.41 µM | 0.168 µM | – | 1.0 | 99.9 | – | – | – | RF K103N [1]: 26.1; EC50 [2]: 8.05 ± 3.54 µM; RF F227L + V106A [2]: 53.5; RF L100I [4]: 4.1; RF Y181C [5]: 33.6; RF Y188L [6]: 60.4; RF E138K [7]: 1.1; CC50 at 5 days [8, 10]: > 15 µM
10 | Cc1cc(C#N)cc(C)c1Oc1nc(Nc2ccc(B3OC(C)(C)C(C)(C)O3)cc2)nc2c1SCCC2 [Compound 3j, 3,5-Dimethyl-4-((2-((4-(4,4,5,5-tetramethyl-1,3,2-dioxaborolan-2-yl)phenyl)amino) -7,8-dihydro-6H-thiopyrano [3,2-d]pyrimidin-4-yl)oxy)benzonitrile] | 0.141 ± 0.053 µM | > 25.9 µM | – | – | – | – | 25.9 ± 1.41 µM | 1.0 | > 184 | 184 | < 1 | 201 to 203 °C | –
11 | Cc1cc(C#N)cc(C)c1Oc1nc(Nc2ccc(B3OC(C)(C)C(C)(C)O3)cc2)nc2c1CCCC2 [Compound 3i, 3,5-Dimethyl-4-((2-((4-(4,4,5,5-tetramethyl-1,3,2-dioxaborolan-2-yl)phenyl)amino) -5,6,7,8-tetrahydroquinazolin-4-yl)oxy)benzonitrile] | 0.191 ± 0.088 µM | > 27.7 µM | – | – | – | – | 27.7 ± 1.27 µM | 1.0 | > 145 | 145 | < 1 | 233 to 235 °C | –
12 | Cc1cc(C#N)cc(C)c1Oc1ccnc(Nc2ccc(B3OC(C)(C)C(C)(C)O3)cc2)n1 [Compound 3f, 3,5-Dimethyl-4-((2-((4-(4,4,5,5-tetramethyl-1,3,2-dioxaborolan-2-yl)phenyl)amino)pyrimidin-4-yl)oxy)benzonitrile] | 0.149 ± 0.049 µM | > 30.6 µM | – | – | – | – | 30.6 ± 1.92 µM | 1.0 | > 206 | 206 | < 1 | 202 to 204 °C | –
